Like-named read-outs stand apart in the source and are kept apart here.
Assays:
Assay type in all cases: in vivo
[1] = system: Tetranychus urticae (spider mites - ova); experiment: Mortality test on Tetranychus urticae ova (TUe), contact; details: topical, 144 h, read-out: TUe grading of mortality; for mortality at 100 ppm: rate 100 ppm
Description: (§1) The activity of the Product was determined using a variety of insect pests. The Product was used in the form of liquid preparations containing from 100 to 500 parts per million (ppm) by weight of the Product. The preparations were made by dissolving the Product in acetone and diluting the solutions with water containing 0.1% by weight of a wetting agent sold under the trade name "SYNPERONIC" NX until the liquid preparations contained the required concentration of the Product. "SYNPERONIC" is a Registered Trade Mark.
(§2) The test procedure adopted with regard to each pest was basically the same and comprised supporting a number of the pests on a medium which was usually a host plant or a foodstuff on which the pests feed, and treating either or both the pests and the medium with the preparations. The mortality of the pests was then assessed at periods usually varying from one to seven days after the treatment.
(§3) The results of the tests are given in Table III for each of the Products, at the rate in parts per million given in the second column, as a grading of mortality designated as A, B or C wherein A indicates 80-100% mortality or knockdown, B indicates 50-79% mortality or knockdown and C indicates less than 50% mortality or knockdown.
(§4) In Table III the pest organism used is designated by a letter code and the pests species, the support medium or food, and the type and duration of test is given in Table II.

[2] = system: Heliothis virescens (tobacco budworm - larvae); experiment: Mortality test on Heliothis virescens (HV), residual; details: 72 h, read-out: HV grading of mortality; for mortality at 100 ppm: rate 100 ppm
Description: as §1, §2, §3, §4
(tobacco budworm - larvae)

[3] = system: Myzus persicae (aphids); experiment: Mortality test on Myzus persicae (MP), contact; details: topical, 72 h, read-out: MP grading of mortality; for mortality at 100 ppm: rate 100 ppm
Description: as §1, §2, §3, §4

[4] = system: Blattella germanica (cockroach nymphs); experiment: Mortality test on Blattella germanica (BG), residual; details: 72 h, read-out: BG grading of mortality
Description: as §1, §2, §3, §4

[5] = system: Diabrotica balteata (rootworm larvae); experiment: Mortality test on Diabrotica balteata (DB), residual; details: 72 h, read-out: DB grading of mortality
Description: as §1, §2, §3, §4

[6] = system: Musca domestica (houseflies - adults); experiment: Mortality test on Musca domestica (MD), contact; details: topical, 24 h, read-out: MD grading of mortality; for mortality at 100 ppm: rate 100 ppm
Description: as §1, §2, §3, §4

[7] = system: Spodoptera exigua (lesser army worm - larvae); experiment: Mortality test on Spodoptera exigua (SP), residual; details: 72 h, read-out: SP grading of mortality
Description: as §1, §2, §3, §4
(lesser army worm - larvae)

[8] = system: Tetranychus urticae (spider mites - adults); experiment: Mortality test on Tetranychus urticae adults (TUa), contact; details: topical, 72 h, read-out: TUa grading of mortality; for mortality at 100 ppm: rate 100 ppm
Description: as §1, §2, §3, §4
(spider mites - adults)

[9] = system: Nephotettix cincticeps (green leaf hopper - nymphs); experiment: Mortality test on Nephotettix cincticeps (NC), contact; details: topical, 72 h, rice plant, 3 days, read-out: NC grading of mortality; for mortality at 500 ppm: rate 500 ppm; for mortality at 100 ppm: rate 100 ppm
Description: as §1, §2, §3, §4
NC Nephotettix cincticeps

[10] = rate 500 ppm, French bean leaf, contact, 6 days
[11] = rate 500 ppm, cotton leaf, residual, 3 days
[12] = rate 500 ppm, Chinese cabbage leaf, contact, 3 days
[13] = rate 500 ppm, cotton wool/sugar, contact, 1 day
[14] = rate 500 ppm, French bean leaf, contact, 3 days
[15] = French bean leaf, contact, 6 days
[16] = Chinese cabbage leaf, contact, 3 days
[17] = French bean leaf, contact, 3 days
[18] = cotton wool/sugar, contact, 1 day
[19] = rate 500 ppm, plastic pot, residual, 3 days
[20] = rate 500 ppm, filter paper/maize seed, residual, 3 days

Row | SMILES | mortality at 500 ppm [1, 10] [%] | mortality at 500 ppm [2, 11] [%] | mortality at 500 ppm [3, 12] [%] | mortality at 500 ppm [4] [%] | mortality at 500 ppm ([5]; in Zea mays) [%] | mortality at 500 ppm [6, 13] [%] | mortality at 500 ppm ([7]; in Gossypium hirsutum) [%] | mortality at 500 ppm [8, 14] [%] | other results
1 | CC1(C)C(C=C(Br)Br)C1C(=O)OCc1ccc(F)c(Cc2ccccc2)c1 (racemic) [X] | < 50 | 80 to 100 | 80 to 100 | 80 to 100 | 80 to 100 | 80 to 100 | 80 to 100 |  | 
2 | CC1(C)[C@H](C(=O)OCc2ccc(F)c(Cc3ccccc3)c2)[C@@H]1/C=C(\Cl)C(F)(F)F [V] | 80 to 100 | 80 to 100 | 80 to 100 |  | 80 to 100 | 80 to 100 | 80 to 100 | 80 to 100 | mortality at 500 ppm [9]: 80 to 100%
3 | CC1(C)[C@H](C(=O)OC(C#N)c2ccc(F)c(Cc3ccccc3)c2)[C@@H]1/C=C(\Cl)C(F)(F)F (some centres unmarked) [VI] |  |  |  |  |  |  |  |  | mortality at 100 ppm [1, 15]: < 50%; mortality at 100 ppm ([2]; cotton leaf, residual, 3 days): 80 to 100%; mortality at 100 ppm [3, 16]: 80 to 100%; mortality at 100 ppm [4]: 80 to 100%; mortality at 100 ppm [8, 17]: 80 to 100%; mortality at 100 ppm [9]: 80 to 100%; mortality at 100 ppm ([5]; in Zea mays): 80 to 100%; mortality at 100 ppm [6, 18]: 80 to 100%; mortality at 100 ppm ([7]; in Gossypium hirsutum): 80 to 100%
4 | CC1(C)[C@H](/C=C(\Cl)C(F)(F)F)[C@@H]1C(=O)OCc1ccc(F)c(Cc2ccccc2)c1 (relative stereo) [I] | 80 to 100 | 80 to 100 | 80 to 100 | 80 to 100 | 80 to 100 | 80 to 100 | 80 to 100 | 80 to 100 | 
5 | CC(C)=CC1C(C(=O)OCc2ccc(F)c(Cc3ccccc3)c2)C1(C)C (centres unmarked) [VIII] | < 50 | 80 to 100 | 80 to 100 | < 50 | 80 to 100 | 80 to 100 | 80 to 100 | < 50 | 
6 | CC1(C)[C@H](C(=O)OC(C#N)c2ccc(F)c(Cc3ccccc3)c2)[C@@H]1/C=C(\Cl)C(F)(F)F (relative stereo) [II] | 80 to 100 | 80 to 100 | 80 to 100 | 80 to 100 | 80 to 100 | 80 to 100 | 80 to 100 | 80 to 100 | 
7 | CC1(C)C(C=C(F)F)C1C(=O)OCc1ccc(F)c(Cc2ccccc2)c1 (racemic) [III] |  |  |  |  |  |  |  |  | mortality at 100 ppm [1, 15]: < 50%; mortality at 100 ppm ([2]; cotton leaf, residual, 3 days): 80 to 100%; mortality at 100 ppm [3, 16]: 80 to 100%; mortality at 100 ppm [4]: < 50%; mortality at 100 ppm [8, 17]: 50 to 79%; mortality at 100 ppm ([5]; in Zea mays): 80 to 100%; mortality at 100 ppm [6, 18]: 80 to 100%; mortality at 100 ppm ([7]; in Gossypium hirsutum): 80 to 100%
8 | CC1(C)[C@H](C=C(Cl)Cl)[C@H]1C(=O)OCc1ccc(F)c(Cc2ccccc2)c1 (relative stereo) [IV] |  |  |  |  |  |  |  |  | mortality at 100 ppm [1, 15]: < 50%; mortality at 100 ppm ([2]; cotton leaf, residual, 3 days): 80 to 100%; mortality at 100 ppm [3, 16]: 80 to 100%; mortality at 100 ppm [4]: < 50%; mortality at 100 ppm [8, 17]: < 50%; mortality at 100 ppm [9]: 80 to 100%; mortality at 100 ppm ([5]; in Zea mays): 80 to 100%; mortality at 100 ppm [6, 18]: 80 to 100%; mortality at 100 ppm ([7]; in Gossypium hirsutum): 80 to 100%
9 | CC1(C)C(C(=O)OCc2ccc(F)c(Cc3ccccc3)c2)C1(C)C [VII] | < 50 | 80 to 100 | 80 to 100 |  |  | 80 to 100 |  |  | mortality at 500 ppm [4, 19]: 80 to 100%; mortality at 500 ppm [5, 20]: 80 to 100%; mortality at 500 ppm [7, 11]: < 50%
10 | CC(OC(=O)C1C(C=C(Cl)C(F)(F)F)C1(C)C)c1ccc(F)c(Cc2ccccc2)c1 (centres unmarked) [XIII] |  | 80 to 100 | 80 to 100 | 80 to 100 | 80 to 100 | 80 to 100 | 80 to 100 | 80 to 100 | mortality at 500 ppm [9]: 80 to 100%
11 | CC1(C)[C@H](C=C(C(F)(F)F)C(F)(F)F)[C@H]1C(=O)OCc1ccc(F)c(Cc2ccccc2)c1 (relative stereo) [IX] | < 50 | 80 to 100 | 80 to 100 | 80 to 100 | 80 to 100 | 80 to 100 | 80 to 100 | 80 to 100 | 
12 | CC(C)(C)c1ncc(C2C(C(=O)OC(C#N)c3ccc(F)c(Cc4ccccc4)c3)C2(C)C)cn1 (centres unmarked) [XII] |  |  |  |  |  |  |  |  | mortality at 500 ppm ([1]; in Phaseolus vulgaris): 50 to 79%; mortality at 500 ppm ([2]; in Gossypium hirsutum): < 50%; mortality at 500 ppm ([3]; in Brassica rapa): 50 to 79%; mortality at 500 ppm [4, 19]: < 50%; mortality at 500 ppm [8]: 80 to 100%; mortality at 500 ppm [5, 20]: 80 to 100%; mortality at 500 ppm [6]: < 50%; mortality at 500 ppm [7, 11]: < 50%
13 | CC(C)(C)c1ncc([C@@H]2[C@@H](C(=O)OCc3ccc(F)c(Cc4ccccc4)c3)C2(C)C)cn1 (relative stereo) [XI] |  |  |  |  |  |  |  |  | mortality at 500 ppm ([1]; in Phaseolus vulgaris): 80 to 100%; mortality at 500 ppm ([2]; in Gossypium hirsutum): 80 to 100%; mortality at 500 ppm ([3]; in Brassica rapa): 80 to 100%; mortality at 500 ppm [4, 19]: < 50%; mortality at 500 ppm [8]: 80 to 100%; mortality at 500 ppm [5, 20]: 80 to 100%; mortality at 500 ppm [6]: 50 to 79%; mortality at 500 ppm [7, 11]: 80 to 100%

Source: patent US4902814A, “Fluorobenzyl esters” (Imperial Chemical Industries PLC, priority 1986, dated 1990)
